Here are results for 20 compounds from patent publication US11912693B2, “Compounds for modulating S1P1 activity and methods of using the same” (TREVENA, INC., priority 2017, dated 2024).

For assay [1], the target named is T1, human sphingosine-1-phosphate receptor 1 (S1P1) (Homo sapiens (Human), UniProt P21453). Kind of assay: β-Arrestin2 recruitment assay (PathHunter), S1P1 CHO-K1 cells. The class given is cell-based. The note with it: for Emax: CHO-K1, efficacy (SPAN) normalized to fingolimod, read-out: hS1P1 B-arrestin2 SPAN; for hS1P1 B-arrestin2 pEC50: β-arrestin2 recruitment, S1P1 CHO-K1 cells. Put shortly:
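Enzyme-fragment complementation read-out: agonist-driven β-arrestin2 binding to ProLink-tagged human S1P1 in stable CHO-K1 cells restores β-galactosidase, measured 1 h at room temperature after a 60 min 37° C. compound incubation. Potency as pEC50, efficacy relative to fingolimod (SPAN).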
Target sequence in this assay (P21453 whole entry, looked up, the tested form may be a part): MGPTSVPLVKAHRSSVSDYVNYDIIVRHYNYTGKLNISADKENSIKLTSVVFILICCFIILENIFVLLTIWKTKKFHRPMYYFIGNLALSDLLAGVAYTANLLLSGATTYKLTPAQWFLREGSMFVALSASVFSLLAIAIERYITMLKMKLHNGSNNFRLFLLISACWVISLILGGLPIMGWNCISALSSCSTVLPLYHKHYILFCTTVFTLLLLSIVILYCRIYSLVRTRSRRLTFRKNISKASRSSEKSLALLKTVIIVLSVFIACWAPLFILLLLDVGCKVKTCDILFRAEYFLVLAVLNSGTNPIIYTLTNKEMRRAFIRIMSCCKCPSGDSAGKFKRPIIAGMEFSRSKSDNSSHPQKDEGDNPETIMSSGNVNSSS
Target sequence in this assay (P32121 whole entry partner, looked up, the tested form may be a part): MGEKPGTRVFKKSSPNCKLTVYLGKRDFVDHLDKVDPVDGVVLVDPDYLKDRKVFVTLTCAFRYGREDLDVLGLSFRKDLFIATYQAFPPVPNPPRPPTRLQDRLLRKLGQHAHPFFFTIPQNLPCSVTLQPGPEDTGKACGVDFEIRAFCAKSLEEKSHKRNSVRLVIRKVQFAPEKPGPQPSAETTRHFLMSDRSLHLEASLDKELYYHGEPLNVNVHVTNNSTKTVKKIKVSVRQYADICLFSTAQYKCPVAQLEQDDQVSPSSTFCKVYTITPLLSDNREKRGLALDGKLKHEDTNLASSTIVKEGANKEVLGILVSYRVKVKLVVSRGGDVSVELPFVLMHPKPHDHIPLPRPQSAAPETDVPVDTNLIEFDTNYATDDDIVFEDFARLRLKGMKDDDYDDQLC

Assay [2] has as its target T1, human sphingosine-1-phosphate receptor 1 (S1P1). As to the kind of experiment: Inhibition of cAMP production (HTRF cAMP HiRange), S1P1 CHO-K1 cells. The class given is cell-based. The note with it: for Emax: CHO-K1, efficacy (SPAN) normalized to fingolimod, read-out: hS1P1 cAMP SPAN; for hS1P1 cAMP pEC50: inhibition of cAMP production, S1P1 CHO-K1 cells. An outline of the steps:
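CHO-K1 cells stably co-expressing human S1P1 (C-terminal Prolink tag) and EA-β-arrestin2 were grown in AssayComplete Media 6 at 37° C. and 5% CO2, plated, and incubated overnight. Agonist-driven inhibition of intracellular cAMP was read by TR-FRET with the HTRF cAMP HiRange kit on a PheraStar reader. Potency is pEC50, and efficacy (SPAN) is normalized to fingolimod.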
Target sequence in this assay (P21453 whole entry, looked up, the tested form may be a part): as the sequence (P21453 whole entry, looked up, the tested form may be a part) above

Assay [3] deals with paclitaxel induced peripheral neuropathy. As to the kind of experiment: Reversal of allodynia induced by paclitaxel in mice (s.c. or p.o., von Frey frequency method). It is filed as in vivo, c57bl/6 mice. The note with it: Mus musculus, po, 1 h, 3 mg/kg p.o., tested 60 min after dosing, read-out: Screen @ 3 mg/kg po (% MPE). On the procedure: Compounds were tested for efficacy in mouse models of chemotherapy induced peripheral neuropathy. […] For these studies […]/6 mice are habituated to the test environment and baseline measurements of pain sensitivity are assessed. To determine mechanical responses, the threshold for responses to punctate mechanical stimuli (mechanical hyperalgesia) was tested according to the frequency method. In brief, the plantar surface of the animal hindpaw was stimulated with a single von Frey monofilament (0.4 g) for approximately 1-2 seconds. If there was a withdrawal response, it was recorded as a positive response. A response was defined as a lifting or shaking of the paw upon stimulation. This was repeated ten times for each mouse. The final measurement for each mouse is the % non-response to stimulation for the ten trials. The % non-response to stimulation is converted to a % MPE. For paclitaxel induced peripheral neuropathy, a series of injections of PAC (6 mg/kg, i.p.) on days 1, 3, 5 and 7 is used to induce peripheral neuropathy. After approximately 14 days from the initiation of PAC injections, animals are re-assessed for mechanical sensitivity. […] On test day animals are dosed with compounds either subcutaneously or orally and tested for mechanical response by the frequency method either 30 min (s.c.) or 60 min (p.o.) after drug administration. Data is presented as a % MPE. For oxaliplatin induced peripheral neuropathy, a series of injections of OXA (4 mg/kg, i.p.) on days 1-5 is used to induce peripheral neuropathy. After approximately 14 days from the initiation of PAC injections, animals are re-assessed for mechanical sensitivity. […] On test day animals are dosed with compounds subcutaneously and tested for mechanical response by the frequency method 30 min after drug administration. Data is presented as a % MPE. One or more of the compounds show reversal of chemotherapeutic induced peripheral neuropathy.

Where only a bound is given, the exact number is not on record here.

Turning to `N#Cc1cc(-c2nnc(-c3ccc4[nH]cnc4c3)o2)ccc1NCC(F)F` [Compound 359, 5-[5-(1H-1,3-benzodiazol-5-yl)-1,3,4-oxadiazol-2-yl]-2-[(2,2-difluoroethyl)amino]benzonitrile], in assay [1], the Emax was > 75% and the “hS1P1 B-arrestin2 pEC50” value was >5. In assay [2], the Emax is > 75% and the “hS1P1 cAMP pEC50” value was >6.5. In assay [3], the inhibition in vivo at 3 mg/kg is > 50%.
As for `CCC1(CC)CC(=O)c2cc(-c3nc(-c4ccc5c(c4)CCC(=O)N5)no3)ccc2O1` [Compound 415, 6-(5-(2,2-diethyl-4-oxochroman-6-yl)-1,2,4-oxadiazol-3-yl)-3,4-dihydroquinolin-2(1H)-one], in assay [1], the “hS1P1 B-arrestin2 pEC50” value was <5. Also, the “hS1P1 cAMP pEC50” value in assay [2] is listed as >6.5. Also, the inhibition in vivo at 3 mg/kg in assay [3] is < 50%.
The corresponding values for `CC(C)Nc1ccc(-c2nc(-c3ccc4c(c3)NC(=O)CC4)no2)cc1C#N` [Compound 435, 2-(isopropylamino)-5-(3-(2-oxo-1,2,3,4-tetrahydroquinolin-7-yl)-1,2,4-oxadiazol-5-yl)benzonitrile] are >5, >6.5 and > 50%.
On the same counts, the results for `CC(C)Nc1ccc(-c2nc(-c3ccc4c(c3)CCNC4=O)no2)cc1C#N` [Compound 442, 2-(isopropylamino)-5-(3-(1-oxo-1,2,3,4-tetrahydroisoquinolin-6-yl)-1,2,4-oxadiazol-5-yl)benzonitrile] are >5, >6.5 and > 50%.
On the same counts, the results for `N#Cc1cc(-c2nc(-c3ccc4c(c3)NC(=O)CC4)no2)ccc1NCC1CC1` [Compound 471, 2-((cyclopropylmethyl)amino)-5-(3-(2-oxo-1,2,3,4-tetrahydroquinolin-7-yl)-1,2,4-oxadiazol-5-yl)benzonitrile] are >5, >6.5 and < 50%.
For the compound `N#Cc1cc(-c2nc(-c3ccc4c(c3)CCC(=O)N4)no2)ccc1NCC(F)(F)F` [Compound 472, 5-[3-(2-oxo-1,2,3,4-tetrahydroquinolin-6-yl)-1,2,4-oxadiazol-5-yl]-2-[(2,2,2-trifluoroethyl)amino]benzonitrile], in assay [1], the “hS1P1 B-arrestin2 pEC50” value is >5. Moreover, the “hS1P1 cAMP pEC50” value in assay [2] was >6.5. Also, the inhibition in vivo at 3 mg/kg in assay [3] was > 50%.
With `CCC1(CC)CC(=O)c2cc(-c3nc(-c4cncc(N)c4)no3)ccc2O1` [Compound 502, 6-(3-(5-aminopyridin-3-yl)-1,2,4-oxadiazol-5-yl)-2,2-diethylchroman-4-one], the “hS1P1 B-arrestin2 pEC50” value in assay [1] is reported as >5. Further, in assay [2], the “hS1P1 cAMP pEC50” value is on record as >6.5. In addition, the inhibition in vivo at 3 mg/kg in assay [3] was > 50%.
On the same counts, the results for `CCC1(CC)CC(=O)c2cc(-c3nc(-c4ccnc(N)c4)no3)ccc2O1` [Compound 513, 6-(3-(2-aminopyridin-4-yl)-1,2,4-oxadiazol-5-yl)-2,2-diethylchroman-4-one] are >5, >6.5 and < 50%.
The corresponding values for `CC(C)Nc1ccc(-c2nc(-c3ccc4c(c3)C(=O)NCC4)no2)cc1C#N` [Compound 514, 2-(isopropylamino)-5-(3-(1-oxo-1,2,3,4-tetrahydroisoquinolin-7-yl)-1,2,4-oxadiazol-5-yl)benzonitrile] are >5, >6.5 and > 50%.
Take `Cc1cn(C)nc1-c1noc(-c2ccc3c(c2)nnn3C(C)C)n1` [Compound 519, 5-[3-(1,4-dimethyl-1H-pyrazol-3-yl)-1,2,4-oxadiazol-5-yl]-1-(propan-2-yl)-1H-1,2,3-benzotriazole]: in assay [1], the Emax is > 75% and the “hS1P1 B-arrestin2 pEC50” value is on record as >5. Also, in assay [2], the Emax is > 75% and the “hS1P1 cAMP pEC50” value is reported as >6.5. The inhibition in vivo at 3 mg/kg in assay [3] is < 50%.
On to `CCC1(CC)CC(=O)c2cc(-c3nc(-c4cccnc4F)no3)ccc2O1` [Compound 547, 2,2-diethyl-6-(3-(2-fluoropyridin-3-yl)-1,2,4-oxadiazol-5-yl)chroman-4-one], for which, in assay [1], the “hS1P1 B-arrestin2 pEC50” value is recorded as >5. Also, in assay [2], the “hS1P1 cAMP pEC50” value is >6.5. In addition, in assay [3], the inhibition in vivo at 3 mg/kg was > 50%.
`CCC1(CC)CC(=O)c2cc(-c3nc(-c4cnccc4C(F)(F)F)no3)ccc2O1` [Compound 558, 2,2-diethyl-6-(3-(4-(trifluoromethyl)pyridin-3-yl)-1,2,4-oxadiazol-5-yl)chroman-4-one]: the “hS1P1 B-arrestin2 pEC50” value in assay [1] is >5. Besides, the “hS1P1 cAMP pEC50” value in assay [2] is >6.5. In assay [3], the inhibition in vivo at 3 mg/kg was > 50%.
Consider `Cc1nc2cc(-c3nnc(-c4ccc(NC(C)C)c(C#N)c4)o3)ccc2[nH]1` [Compound 560, 5-[5-(2-methyl-1H-1,3-benzodiazol-5-yl)-1,3,4-oxadiazol-2-yl]-2-[(propan-2-yl)amino]benzonitrile], for which, in assay [1], the “hS1P1 B-arrestin2 pEC50” value is recorded as >5. For the same compound, the “hS1P1 cAMP pEC50” value in assay [2] is on record as >6.5. In addition, in assay [3], the inhibition in vivo at 3 mg/kg was > 50%.
Consider `CCC1(CC)CC(=O)c2cc(-c3nc(-c4cccnc4C(F)(F)F)no3)ccc2O1` [Compound 562, 2,2-diethyl-6-(3-(2-(trifluoromethyl)pyridin-3-yl)-1,2,4-oxadiazol-5-yl)chroman-4-one], for which, in assay [1], the “hS1P1 B-arrestin2 pEC50” value is >5. Further, the “hS1P1 cAMP pEC50” value in assay [2] is given as >6.5. Moreover, the inhibition in vivo at 3 mg/kg in assay [3] was > 50%.
On the same counts, the results for `CCC1(CC)CC(=O)c2cc(-c3nc(-c4cncc(C)c4)no3)ccc2O1` [Compound 563, 2,2-diethyl-6-(3-(5-methylpyridin-3-yl)-1,2,4-oxadiazol-5-yl)chroman-4-one] are >5, >6.5 and < 50%.
On the same counts, the results for `CCC1(CC)CC(=O)c2cc(-c3nc(-c4cccnc4C)no3)ccc2O1` [Compound 564, 2,2-diethyl-6-(3-(2-methylpyridin-3-yl)-1,2,4-oxadiazol-5-yl)chroman-4-one] are >5, >6.5 and > 50%.
The corresponding values for `CCC1(CC)CC(=O)c2cc(-c3nc(-c4ccc(NS(C)(=O)=O)cc4OC)no3)ccc2O1` [Compound 568, N-{4-[5-(2,2-diethyl-4-oxo-3,4-dihydro-2H-1-benzopyran-6-yl)-1,2,4-oxadiazol-3-yl]-3-methoxyphenyl}methanesulfonamide] are >5, >6.5 and < 50%.
Turning to `CC(C)Nc1ccc(-c2nnc(-c3ccc4ncn(C)c4c3)o2)cc1C#N` [Compound 579, 5-[5-(1-methyl-1H-1,3-benzodiazol-6-yl)-1,3,4-oxadiazol-2-yl]-2-[(propan-2-yl)amino]benzonitrile], in assay [1], the “hS1P1 B-arrestin2 pEC50” value is given as >5. Also, in assay [2], the “hS1P1 cAMP pEC50” value is >6.5. Further, the inhibition in vivo at 3 mg/kg in assay [3] was > 50%.
The corresponding values for `Cn1cnc2ccc(-c3nnc(-c4ccc(NCC(F)F)c(C#N)c4)o3)cc21` [Compound 580, 2-[(2,2-difluoroethyl)amino]-5-[5-(1-methyl-1H-1,3-benzodiazol-6-yl)-1,3,4-oxadiazol-2-yl]benzonitrile] are >5, >6.5 and > 50%.
Take `CCC1(CC)CC(=O)c2cc(-c3nc(-c4ccc(NC(C)=O)cc4OC(F)(F)F)no3)ccc2O1` [Compound 584, N-{4-[5-(2,2-diethyl-4-oxo-3,4-dihydro-2H-1-benzopyran-6-yl)-1,2,4-oxadiazol-3-yl]-3-(trifluoromethoxy)phenyl}acetamide]: in assay [1], the Emax is > 75% and the “hS1P1 B-arrestin2 pEC50” value was >5. Besides, in assay [2], the Emax is > 75% and the “hS1P1 cAMP pEC50” value is recorded as >6.5. The inhibition in vivo at 3 mg/kg in assay [3] was > 50%.
